Measured values: ChEMBL document CHEMBL1201862, “PubChem BioAssay data set” (2004)
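Assay format: 96-well plates, 48-hour exposure. GI50 is the concentration that inhibits growth by half.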 Active and inactive are the calls of the source. Cut-off read from the data, not from the text of the source: active = GI50 up to about 1.1 µM and inactive = higher.

What was measured:
Test in all cases: inhibition of tumour cell growth, NCI panel, 48 h
SF-295 = system: SF-295
OVCAR-3 = system: OVCAR-3
SF-539 = system: SF-539
TK-10 = system: TK-10
SK-MEL-5 = system: SK-MEL-5
HCT-15 = system: HCT-15
HL-60 = system: HL-60
DLD-1 = system: DLD-1
HCC 2998 = system: HCC 2998
M14 = system: M14
HOP-92 = system: HOP-92
OVCAR-4 = system: OVCAR-4
MOLT-4 = system: MOLT-4
HCT-116 = system: HCT-116
Malme-3M = system: Malme-3M
786-0 = system: 786-0
RPMI-8226 = system: RPMI-8226
SW-620 = system: SW-620
PC-3 = system: PC-3
BT-549 = system: BT-549

Structure (SMILES) | GI50 (SF-295) | GI50 (OVCAR-3) | GI50 (SF-539) | GI50 (TK-10) | GI50 (SK-MEL-5) | GI50 (HCT-15) [µM] | GI50 (HL-60) | GI50 (DLD-1) | GI50 (HCC 2998) | GI50 (M14) | GI50 (HOP-92) | GI50 (OVCAR-4) | GI50 (MOLT-4) | GI50 (HCT-116) | GI50 (Malme-3M) | GI50 (786-0) | GI50 (RPMI-8226) | GI50 (SW-620) | GI50 (PC-3) | GI50 (BT-549)
CCOC(=O)C(=O)Nc1ccc(C)cc1C | > 100 µM (inactive) | > 100 µM (inactive) | > 100 µM (inactive) | > 100 µM (inactive) | > 100 µM (inactive) | > 100 | > 100 µM (inactive) | > 100 µM (inactive) | > 100 µM (inactive) | > 100 µM (inactive) | > 100 µM (inactive) | > 100 µM (inactive) | > 100 µM (inactive) | > 100 µM (inactive) | > 100 µM (inactive) | > 100 µM (inactive) | > 100 µM (inactive) | > 100 µM (inactive) | – | –
CCNCCCCNCCCCNCCCCNCCCCNCC | 42 µM (inactive) | > 100 µM (inactive) | 70.1 µM (inactive) | 29.7 µM (inactive) | 53.5 µM (inactive) | > 100 | 9.04 µM (inactive) | > 100 µM (inactive) | > 100 µM (inactive) | > 100 µM (inactive) | 30.8 µM (inactive) | > 22.2 µM (inactive) | > 79.6 µM (inactive) | 11.4 µM (inactive) | 6.49 µM (inactive) | 34.8 µM (inactive) | 53 µM (inactive) | > 100 µM (inactive) | > 100 µM (inactive) | > 100 µM (inactive)
N#CCN1C(=O)c2cccc3cc([N+](=O)[O-])cc(c23)C1=O | 61.9 µM (inactive) | 29.4 µM (inactive) | 33 µM (inactive) | 36.4 µM (inactive) | 43.1 µM (inactive) | 28 | 23.8 µM (inactive) | 32 µM (inactive) | 44.8 µM (inactive) | 37.3 µM (inactive) | 99.1 µM (inactive) | 45.4 µM (inactive) | 26.4 µM (inactive) | 32.2 µM (inactive) | 33.6 µM (inactive) | 60.3 µM (inactive) | 22.7 µM (inactive) | 36.5 µM (inactive) | – | –
S=c1[nH]nc(Cc2ccccc2)c(=S)[nH]1 | > 59.3 µM (inactive) | > 61.7 µM (inactive) | > 76.4 µM (inactive) | > 56 µM (inactive) | 46.7 µM (inactive) | > 62.1 | > 54.8 µM (inactive) | 94.8 µM (inactive) | > 45.9 µM (inactive) | > 78.9 µM (inactive) | 23.3 µM (inactive) | > 60.7 µM (inactive) | > 59.7 µM (inactive) | > 61 µM (inactive) | > 55.6 µM (inactive) | > 100 µM (inactive) | 50.8 µM (inactive) | > 100 µM (inactive) | 24.9 µM (inactive) | 35.2 µM (inactive)
CN(C)/C=N/c1nc2c(ncn2C2OC(CO)C(O)C2O)c(=O)[nH]1 (centres undefined) | > 100 µM (inactive) | > 100 µM (inactive) | > 100 µM (inactive) | > 100 µM (inactive) | > 100 µM (inactive) | > 100 | > 100 µM (inactive) | > 100 µM (inactive) | > 100 µM (inactive) | > 100 µM (inactive) | > 100 µM (inactive) | > 100 µM (inactive) | > 100 µM (inactive) | > 100 µM (inactive) | > 100 µM (inactive) | > 100 µM (inactive) | > 100 µM (inactive) | > 100 µM (inactive) | – | –
CN1CCC(SC2Cc3cc(Cl)ccc3Sc3ccccc32)CC1 (centres undefined) | 15.9 µM (inactive) | 13.6 µM (inactive) | 16.4 µM (inactive) | 13 µM (inactive) | 13.5 µM (inactive) | 15.7 | 4.15 µM (inactive) | 14 µM (inactive) | 8.93 µM (inactive) | 4 µM (inactive) | 11.7 µM (inactive) | 14.7 µM (inactive) | 4.24 µM (inactive) | 10.4 µM (inactive) | 14.2 µM (inactive) | 13 µM (inactive) | 7.29 µM (inactive) | 13.6 µM (inactive) | – | –
N#Cc1cc([N+](=O)[O-])ccc1NC(=O)C(=O)C(C(=O)c1ccc2ccccc2c1)C1OCc2ccccc21 (centres undefined) | 3.15 µM (inactive) | 3.06 µM (inactive) | 1.82 µM (inactive) | 22.3 µM (inactive) | 9.06 µM (inactive) | 7.8 | 12.2 µM (inactive) | 11.1 µM (inactive) | 10.3 µM (inactive) | 15.1 µM (inactive) | 7.01 µM (inactive) | > 25.5 µM (inactive) | 2.18 µM (inactive) | 5.01 µM (inactive) | 8.41 µM (inactive) | 6.28 µM (inactive) | 5.2 µM (inactive) | 6.27 µM (inactive) | – | –
CCCCCCN(CCCCCC)C(=O)Cc1c2n(c3ccccc13)Cc1ccccc1-2 | 56.8 µM (inactive) | 43.4 µM (inactive) | > 100 µM (inactive) | 51.8 µM (inactive) | 41.4 µM (inactive) | 37.4 | 19.8 µM (inactive) | 33.7 µM (inactive) | 53.7 µM (inactive) | 44.8 µM (inactive) | 10.6 µM (inactive) | 79.8 µM (inactive) | 33.3 µM (inactive) | 29.6 µM (inactive) | 88.9 µM (inactive) | 85.1 µM (inactive) | 28.8 µM (inactive) | 49.5 µM (inactive) | – | –
Cc1nc(N)c(-c2ccccc2)s1 | 32.7 µM (inactive) | > 92 µM (inactive) | 70.8 µM (inactive) | > 100 µM (inactive) | 43.5 µM (inactive) | 33.8 | 28.6 µM (inactive) | > 82.6 µM (inactive) | > 100 µM (inactive) | 40.9 µM (inactive) | > 100 µM (inactive) | > 100 µM (inactive) | > 76.7 µM (inactive) | 31.7 µM (inactive) | > 100 µM (inactive) | 77.6 µM (inactive) | > 49.1 µM (inactive) | 18.3 µM (inactive) | – | –
CCCN(CCC)C(=O)C(=O)c1c(N)[nH]n(-c2ccccc2)c1=O | > 100 µM (inactive) | > 100 µM (inactive) | > 100 µM (inactive) | > 100 µM (inactive) | > 100 µM (inactive) | > 100 | 80.9 µM (inactive) | 78.3 µM (inactive) | > 100 µM (inactive) | > 100 µM (inactive) | > 100 µM (inactive) | > 100 µM (inactive) | > 100 µM (inactive) | > 100 µM (inactive) | > 100 µM (inactive) | > 100 µM (inactive) | > 100 µM (inactive) | > 100 µM (inactive) | – | –
CCN(CC)CC(O)CNc1ccc(NCC(O)CCl)c2c1C(=O)c1ccccc1C2=O (centres undefined) | 9.75 µM (inactive) | 6.78 µM (inactive) | 6.27 µM (inactive) | 12.1 µM (inactive) | 7.48 µM (inactive) | 6.1 | 3.54 µM (inactive) | 8.83 µM (inactive) | 7.83 µM (inactive) | 3.3 µM (inactive) | 5.58 µM (inactive) | 6.52 µM (inactive) | 0.484 µM (active) | 1.67 µM (inactive) | 13.4 µM (inactive) | 2.98 µM (inactive) | 4.92 µM (inactive) | 1.28 µM (inactive) | 6.47 µM (inactive) | 2.22 µM (inactive)
CC(C)c1cc2c(O)c(c1)Cc1cc(C(C)C)cc(c1O)Cc1cc(C(C)C)cc(c1O)Cc1cc(C(C)C)cc(c1O)Cc1cc(C(C)C)cc(c1O)Cc1cc(C(C)C)cc(c1O)C2 | > 100 µM (inactive) | > 100 µM (inactive) | > 100 µM (inactive) | > 100 µM (inactive) | > 100 µM (inactive) | > 100 | > 100 µM (inactive) | > 100 µM (inactive) | > 100 µM (inactive) | > 100 µM (inactive) | > 100 µM (inactive) | > 100 µM (inactive) | > 100 µM (inactive) | > 100 µM (inactive) | > 100 µM (inactive) | > 100 µM (inactive) | > 100 µM (inactive) | > 100 µM (inactive) | – | –
CCC/C(=N\NC(=S)N1CC2CCC(CC2)C1)c1ccccn1 | 0.399 µM (active) | 0.254 µM (active) | 0.594 µM (active) | 0.977 µM (active) | 0.117 µM (active) | 0.0853 | 0.00957 µM (active) | 0.0118 µM (active) | 0.344 µM (active) | 0.0929 µM (active) | 0.019 µM (active) | 0.395 µM (active) | 0.0179 µM (active) | 0.0359 µM (active) | – | 0.438 µM (active) | 0.00822 µM (active) | 0.0566 µM (active) | 0.0906 µM (active) | 0.3 µM (active)
ClCCN(CC#CCCCC#CCN(CCCl)CCCl)CCCl | 11.6 µM (inactive) | 11.6 µM (inactive) | 8.36 µM (inactive) | 22.8 µM (inactive) | 11.3 µM (inactive) | 12.4 | 1.26 µM (inactive) | 15.6 µM (inactive) | 18.4 µM (inactive) | 14.5 µM (inactive) | 18.4 µM (inactive) | 20.6 µM (inactive) | 1.66 µM (inactive) | 10.4 µM (inactive) | 14.2 µM (inactive) | 4.61 µM (inactive) | 2.79 µM (inactive) | 10.2 µM (inactive) | – | –
